Key:
smallflower flatsedge = test: Test B flood test smallflower flatsedge; assay type: in vivo, Cyperus difformis
In short: (§1)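 Flood test on plants grown to the 2-leaf stage; treated plants kept in greenhouse twelve to sixteen days, then visually rated against controls on a 0 (no effect) to 10 (complete control) scale.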

winter wheat [1] = test: Test E winter wheat; assay type: in vivo, Triticum aestivum; settings: Preemergence; for Plant response rating, Wheat (winter): 0 to 100 scale where 0 is no effect and 100 is complete control
wild oat [2] = test: Test E wild oat; assay type: in vivo, Avena fatua; settings: Preemergence; for Plant response rating, Wild oat: 0 to 100 scale where 0 is no effect and 100 is complete control
blackgrass [3] = test: Test B pre/postemergence blackgrass; assay type: in vivo, Alopecurus myosuroides
In short: (§2)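 Test chemicals in a non-phytotoxic solvent mixture with surfactant were sprayed preemergence onto planted seeds and postemergence onto plants 2 to 18 cm tall (1- to 4-leaf stage). After twelve to sixteen days in a greenhouse, injury was visually rated against untreated controls from 0 (no effect) to 10 (complete control).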

winter barley = test: Test E winter barley; assay type: in vivo, Hordeum vulgare; settings: Preemergence; for Plant response rating, Barley (winter): 0 to 100 scale where 0 is no effect and 100 is complete control
Italian ryegrass = test: Test E Italian ryegrass; assay type: in vivo, Lolium multiflorum; settings: Preemergence; for Plant response rating, I. Ryegrass: 0 to 100 scale where 0 is no effect and 100 is complete control
blackgrass [4] = test: Test E blackgrass; assay type: in vivo, Alopecurus myosuroides; settings: Preemergence; for Plant response rating, Blackgrass: 0 to 100 scale where 0 is no effect and 100 is complete control
rice = test: Test B flood test rice; assay type: in vivo, Oryza sativa
In short: as §1

bamyardgrass = test: Test B flood test barnyardgrass; assay type: in vivo, Echinochloa crus-galli
In short: as §1

green foxtail = test: Test E green foxtail; assay type: in vivo, Setaria viridis; settings: Preemergence; for Plant response rating, Green foxtail: 0 to 100 scale where 0 is no effect and 100 is complete control
winter wheat [5] = test: Test E winter wheat; assay type: in vivo, Triticum aestivum; settings: Postemergence, 0 to 100 scale
In short: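 Visual evaluation versus untreated controls after about 21 to 28 days in the greenhouse. Compound was in a surfactant-containing non-phytotoxic solvent; postemergence plants were treated at the 1- to 4-leaf stage, grown in a 60:40 sandy loam and potting mix blend.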

wild oat [6] = test: Test B pre/postemergence wild oat; assay type: in vivo, Avena fatua
In short: as §2

[7] = Rate 62 g/ha, headed Pre-emergence (flood test species), scale 0 to 10 (0 no effect, 10 complete control)
[8] = Rate 125 g/ha, Pre-emergence, flood test species, scale 0 to 10 where 0 is no effect and 10 is complete control
[9] = Rate 250 g/ha, Pre-emergence, flood-test species, scale 0 to 10, 0 is no effect, 10 is complete control
[10] = Rate 500 g/ha, Pre-emergence, flood test species, scale 0 to 10 (0 no effect, 10 complete control)
[11] = Preemergence, Rate 62 g/ha, scale of 0 to 10 where 0 is no effect and 10 is complete control
[12] = Preemergence, Rate 250 g/ha, scale 0 to 10, 0 is no effect, 10 is complete control
[13] = Preemergence, Rate 500 g/ha, scale of 0 to 10 where 0 is no effect and 10 is complete control
[14] = Rate 62 g/ha, Postemergence, scale of 0 to 10 where 0 is no effect and 10 is complete control
[15] = Rate 125 g/ha, Postemergence, scale 0 to 10

CC(C)N(C(=O)n1oc(=O)n(Cc2ccco2)c1=O)c1ccc(F)cc1F [Compound 208]
S. Flatsedge plant response rating (smallflower flatsedge; [7]): 0
S. Flatsedge plant response rating (smallflower flatsedge; [8]): 0
S. Flatsedge plant response rating (smallflower flatsedge; [9]): 0
S. Flatsedge plant response rating (smallflower flatsedge; [10]): 0
Wheat (winter) plant response rating (0 to 100 scale) (winter wheat [1]; Rate 250 g/ha): 30
Plant response rating, Wheat (winter) (winter wheat [1]; Rate 500 g/ha): 30
Plant response rating, Wheat (winter) (winter wheat [1]; Rate 1000 g/ha): 30
Wild oat plant response rating (0 to 100 scale) (wild oat [2]; Rate 250 g/ha): 50
Plant response rating, Wild oat (wild oat [2]; Rate 500 g/ha): 60
Plant response rating, Wild oat (wild oat [2]; Rate 1000 g/ha): 50
Blackgrass plant response rating (blackgrass [3]; [11]): 0
Blackgrass plant response rating (0 to 10 scale) (blackgrass [3]; Preemergence, Rate 125 g/ha, 0 is no effect, 10 is complete control): 0
Blackgrass plant response rating (blackgrass [3]; [12]): 0
Plant response rating, Blackgrass (blackgrass [3]; [13]): 3
Blackgrass plant response rating (blackgrass [3]; [14]): 0
Blackgrass plant response rating (blackgrass [3]; [15]): 0
Plant response rating (0 to 10; 0 is no effect, 10 is complete control), Blackgrass (blackgrass [3]; Rate 250 g/ha, Postemergence): 0
Blackgrass plant response rating (blackgrass [3]; Rate 500 g/ha, Postemergence, scale 0 to 10): 7
Barley (winter) plant response rating (0 to 100 scale) (winter barley; Rate 250 g/ha): 30
Plant response rating, Barley (winter) (winter barley; Rate 500 g/ha): 40
Plant response rating, Barley (winter) (winter barley; Rate 1000 g/ha): 50
I. Ryegrass plant response rating (0 to 100 scale) (Italian ryegrass; Rate 250 g/ha): 50
Plant response rating, I. Ryegrass (Italian ryegrass; Rate 500 g/ha): 60
Plant response rating, I. Ryegrass (Italian ryegrass; Rate 1000 g/ha): 95
Blackgrass plant response rating (0 to 100 scale) (blackgrass [4]; Rate 250 g/ha): 40
Plant response rating, Blackgrass (blackgrass [4]; Rate 500 g/ha): 85
Plant response rating, Blackgrass (blackgrass [4]; Rate 1000 g/ha): 85
Rice plant response rating (rice; [7]): 0
Rice plant response rating (rice; [8]): 0
Rice plant response rating (rice; [9]): 0
Rice plant response rating (rice; [10]): 0
Barnyardgrass plant response rating (bamyardgrass; [7]): 0
Barnyardgrass plant response rating (bamyardgrass; [8]): 0
Barnyardgrass plant response rating (bamyardgrass; [9]): 0
Barnyardgrass plant response rating (bamyardgrass; [10]): 0
Green foxtail plant response rating (0 to 100 scale) (green foxtail; Rate 250 g/ha): 40
Plant response rating, Green foxtail (green foxtail; Rate 500 g/ha): 60
Plant response rating, Green foxtail (green foxtail; Rate 1000 g/ha): 70
Plant response rating, Wheat (winter) (winter wheat [5]; Rate 1000 g/ha, 0 is no effect and 100 is complete control): 60
Plant response rating, Wheat (winter) (winter wheat [5]; Rate 500 g/ha, 0 is no effect, 100 is complete control): 50
Wild oats plant response rating (wild oat [6]; [11]): 0
Wild oats plant response rating (wild oat [6]; [12]): 0
Plant response rating, Wild oats (wild oat [6]; [13]): 3
Wild oats plant response rating (wild oat [6]; [14]): 0
Wild oats plant response rating (wild oat [6]; [15]): 0
Plant response rating (0 to 10; 0 is no effect, 10 is complete control), Wild oats (wild oat [6]; Rate 250 g/ha, Postemergence): 0

— patent US6737383B1, “Herbicidal oxadiazolidines” (priority 1999, dated 2004)
